EC50 data for twelve molecules are collected here from US8383094B2, “Hepatitis C virus inhibitors” (Bristol-Myers Squibb Company, priority 2008, dated 2013).

This experiment has as its system HCV 1b genotype. The experiment can be described thus: HCV Replicon assay (HCV-neo replicon cells, wild-type). Format: cell-based.
Setting [1] is: Hepatitis C virus, HCV 1b genotype replicon, range class A-D, read-out: 1b EC50 (in μM or range).
The mark [2] stands for this setting: HCV 1b genotype replicon, range class A-D, read-out: 1b EC50 (in μM or range).
Setting [3] is: Hepatitis C virus, HCV 1b genotype replicon, read-out: 1b EC50 (in μM or range).

Read-outs that look alike come from different tables or passages of the source.

Turning to `CC(=O)N1CCN(C(C(=O)N2CCC[C@H]2C(=O)Nc2ccc(C#Cc3ccc(NC(=O)[C@@H]4CCCN4C(=O)C(c4ccccc4)N4CCN(C(C)=O)CC4)cc3)cc2)c2ccccc2)CC1` (stereo partly drawn) [VN48, (2S,2′S)-N,N′-(1,2-ethynediyldi-4,1-phenylene)bis(1-((4-acetyl-1-piperazinyl)(phenyl)acetyl)-2-pyrrolidinecarboxamide)], the EC50 under setting [1] is under 4.57 nM. On to `CC(=O)N1CCN(C(C(=O)N2CCC[C@H]2C(=O)Nc2ccc(C#Cc3ccc(NC(=O)[C@@H]4CCCN4C(=O)C(c4ccccc4)N4CCN(C(C)=O)CC4)cc3)cc2)c2ccccc2)CC1` (stereo partly drawn) [VN49, (2S,2′S)-N,N′-(1,2-ethynediyldi-4,1-phenylene)bis(1-((4-acetyl-1-piperazinyl)(phenyl)acetyl)-2-pyrrolidinecarboxamide)], for which, under setting [2], the EC50 was 4.57 to 99 nM.

Take `O=C(Nc1ccc(C#Cc2ccc(NC(=O)[C@@H]3CCCN3C(=O)C(c3ccccc3)N3CC[C@H](O)C3)cc2)cc1)[C@@H]1CCCN1C(=O)C(c1ccccc1)N1CC[C@H](O)C1` (stereo partly drawn) [VN50, (2S,2′S)-N,N′-(1,2-ethynediyldi-4,1-phenylene)bis(1-(((3S)-3-hydroxy-1-pyrrolidinyl)(phenyl)acetyl)-2-pyrrolidinecarboxamide)]: the concentration for a half-maximal effect (EC50) under setting [3] came out at 0.5 nM. `O=C(Nc1ccc(C#Cc2ccc(NC(=O)[C@@H]3CCCN3C(=O)C(c3ccccc3)N3CC[C@H](O)C3)cc2)cc1)[C@@H]1CCCN1C(=O)C(c1ccccc1)N1CC[C@H](O)C1` (stereo partly drawn) [VN51, (2S,2′S)-N,N′-(1,2-ethynediyldi-4,1-phenylene)bis(1-(((3S)-3-hydroxy-1-pyrrolidinyl)(phenyl)acetyl)-2-pyrrolidinecarboxamide)]: the concentration giving a half-maximal response (EC50) under setting [1] lay within 4.57 to 99 nM. Still for that read-out and setting: the same measure for `O=C(Nc1ccc(C#Cc2ccc(NC(=O)[C@@H]3CCCN3C(=O)C(c3ccccc3)N3CC[C@@H](O)C3)cc2)cc1)[C@@H]1CCCN1C(=O)C(c1ccccc1)N1CC[C@@H](O)C1` (stereo partly drawn) [VN52, (2S,2′S)-N,N′-(1,2-ethynediyldi-4,1-phenylene)bis(1-(((3R)-3-hydroxy-1-pyrrolidinyl)(phenyl)acetyl)-2-pyrrolidinecarboxamide)]: under 4.57 nM.

Take `O=C(Nc1ccc(C#Cc2ccc(NC(=O)[C@@H]3CCCN3C(=O)C(c3ccccc3)N3CC[C@@H](O)C3)cc2)cc1)[C@@H]1CCCN1C(=O)C(c1ccccc1)N1CC[C@@H](O)C1` (stereo partly drawn) [VN53, (2S,2′S)-N,N′-(1,2-ethynediyldi-4,1-phenylene)bis(1-(((3R)-3-hydroxy-1-pyrrolidinyl)(phenyl)acetyl)-2-pyrrolidinecarboxamide)]: under setting [2], the 50% effective concentration (EC50) lay within 4.57 to 99 nM.

On to `CCOC(=O)N[C@@H](C(=O)N1CCC[C@H]1C(=O)Nc1ccc(C#Cc2ccc(NC(=O)[C@@H]3CCCN3C(=O)[C@H](NC(=O)OCC)c3ccccc3)cc2)cc1)c1ccccc1` [VN54, Diethyl (1,2-ethynediylbis(4,1-phenylenecarbamoyl(2S)-2,1-pyrrolidinediyl((1R)-2-oxo-1-phenyl-2,1-ethanediyl)))biscarbamate], for which the EC50 under setting [3] worked out at 0.018 nM. For `COC(=O)N[C@@H](C(=O)N1CCC[C@H]1C(=O)Nc1ccc(C#Cc2ccc(NC(=O)[C@@H]3CCCN3C(=O)[C@H](NC(=O)OC)c3ccccc3)cc2)cc1)c1ccccc1` [VN55, Dimethyl (1,2-ethynediylbis(4,1-phenylenecarbamoyl(2S)-2,1-pyrrolidinediyl((1R)-2-oxo-1-phenyl-2,1-ethanediyl)))biscarbamate], the EC50 (HCV 1b genotype replicon, read-out: 1b EC50 (in μM or range)) was 0.013 nM. Turning to `CCCOC(=O)N[C@@H](C(=O)N1CCC[C@H]1C(=O)Nc1ccc(C#Cc2ccc(NC(=O)[C@@H]3CCCN3C(=O)[C@H](NC(=O)OCCC)c3ccccc3)cc2)cc1)c1ccccc1` [VN56, Dipropyl (1,2-ethynediylbis(4,1-phenylenecarbamoyl(2S)-2,1-pyrrolidinediyl((1R)-2-oxo-1-phenyl-2,1-ethanediyl)))biscarbamate], the EC50 under setting [2] was under 4.57 nM. Consider `CC(C)OC(=O)N[C@@H](C(=O)N1CCC[C@H]1C(=O)Nc1ccc(C#Cc2ccc(NC(=O)[C@@H]3CCCN3C(=O)[C@H](NC(=O)OC(C)C)c3ccccc3)cc2)cc1)c1ccccc1` [VN57, Diisopropyl (1,2-ethynediylbis(4,1-phenylenecarbamoyl(2S)-2,1-pyrrolidinediyl((1R)-2-oxo-1-phenyl-2,1-ethanediyl)))biscarbamate], for which, under setting [2], the EC50 is under 4.57 nM. As to `O=C(Nc1cccc(C#Cc2cccc(NC(=O)[C@@H]3CCCN3C(=O)OCc3ccccc3)n2)n1)[C@@H]1CCCN1C(=O)OCc1ccccc1` [YQ1, dibenzyl (2S,2′S)-2,2′-(1,2-ethynediylbis(6,2-pyridinediylcarbamoyl))di(1-pyrrolidinecarboxylate)], the EC50 under setting [3] came to 7 nM. As to `O=C(Nc1cncc(C#Cc2cncc(NC(=O)[C@@H]3CCCN3C(=O)Cc3ccccc3)c2)c1)[C@@H]1CCCN1C(=O)Cc1ccccc1` [YQ2, (2S,2′S)-N,N′-(1,2-ethynediyldi-5,3-pyridinediyl)bis(1-(phenylacetyl)-2-pyrrolidinecarboxamide)], the EC50 (Hepatitis C virus, read-out: 1b EC50 (in μM or range), HCV 1b genotype replicon) turned out to be 523000 nM.

The term EC50 denotes the concentration at which the effect is half-maximal.
